Patent US20210332024A1, “MODULATORS OF PIN1 ACTIVITY AND USES THEREOF” (Yeda Research and Development Co. Ltd., priority 2019, published 2021)

Experiments:
[1] = target: T1, Pin1 in IMR32 cells (Homo sapiens, UniProt Q13526); test: Live cell competition assay with Pin1-3-DTB pull-down, IMR32 cells; format: cell-based; conditions: IMR32 cells
T1 construct: endogenous in cells; host or cells: IMR32
Protocol: The indicated cells were treated with increasing concentrations of either DMSO, Pin1-3, or Pin1-3-AcA for 5 hours. Cells were harvested by scraping and washed twice with PBS before lysis with 50 mM HEPES (pH 7.4), 1 mM EDTA, 10% glycerol, 1 mM TCEP, 150 mM NaCl, 1 mM EDTA, 0.5% NP-40, and protease inhibitor tablet (Roche cat. #4693159001). After clarifying (14,000 rpm for 15 minutes), samples were treated with the indicated concentrations of Pin1-3-DTB at 4° C. for 1 hour. Lysates were then incubated with streptavidin agarose resin (Thermo Scientific, cat. #20349) for 1.5 hour at 4° C. Beads were washed four times with 500 μl of washing buffer (50 mM HEPES (pH 7.5), 10 mM NaCl, 1 mM EDTA, 10% glycerol), then pelleted by centrifugation and dried. The beads were boiled for 5 minutes at 95° C. in 2×LDS+10% β-mercaptoethanol. Proteins of interest were then assessed via Western blotting using the bolt system (Life Technologies).
The indicated cells were plated in 10 cm plates with 2.5 million cells per plate in 6 ml of medium. The day after plating, cells were treated with the indicated concentrations of candidate inhibitor for the indicated time points. The cells were then washed two times with cold phosphate buffer saline (1 ml per 10 cm plate) and collected by scraping with a cell scraper. […]

[2] = Metabolic stability in hepatic microsomes; format: in vitro ADME; conditions: liver microsomes; mouse hepatic microsomes
[3] = tested on: Pancreatic ductal adenocarcinoma (PDAC) cells; test: PDAC cell growth; format: cell-based, human; conditions: treated for 3 days
Protocol: Pancreatic ductal adenocarcinoma (PDAC) cells (derived from a human patient) were treated with Pin1-3 for 3 days. PDAC organoids were treated with Pin1-3 for 7 days (day 7 to day 14).

[4] = tested on: KPC mouse derived tumor cells; test: KPC orthotopic transplantation mouse model; format: in vivo, mice; conditions: IP 20 or 40 mg/kg every day
Protocol: 10^6 KPC (KrasLSL.G12D/+; p53R172H/+; PdxCretg/+) mouse derived tumor cells were transplanted into B6 mice pancreas (orthotopic transplantation). After 1 week of the transplantation, treatment of mice with Pin1-3 began. Mice were treated (IP) with Pin1-3 diluted solution (as a control), or 20 or 40 mg/kg every day. Tumor size was measured, and when the tumor size in control group reached 2 cm, mice were sacrificed to collect tumor tissue (n=4), and Kaplan-Meier survival analysis (n=8) was performed.

[5] = tested on: MDA-MB-231 cells; test: Cell viability assay (CellTiter-Glo); format: cell-based; conditions: Homo sapiens; cell viability assay with MDA-MB-231 cells
Protocol: MDA-MB-231 cells grew in DMEM medium supplemented with 10% FCS (fetal calf serum), 1% PS (penicillin-streptomycin) and 1% L-glutamine (all from Biological Industries). Exclusion of mycoplasma contamination was monitored and conducted by test with MycoAlert™ kit (Lonza). Cells were trypsinized and counted, and 1000 cells/well were plated in 50 μl of growth medium into 384-well white TC plates (Greiner) using Multidrop™ 384 (Thermo Scientific) Washer Dispenser II. The number of viable cells was monitored using CellTiter-Glo® Luminescent kit (Promega) in accordance with the manufacturer's protocol. Luminescence was measured using luminescence module of PHERAstar™ FS plate reader (BMG Labtech). Data analysis was performed using GeneData 12 analytic software. Assay ready plate preparation: Compounds transferred into black microplates (Greiner 784900) using Labcyte Echo® acoustic dispensing technology. Assay ready plates were then sealed with heat seals. If not used immediately, plates were frozen at −20° C. and held in polypropylene boxes with silica-gel desiccant.
Exemplary Pin1-binding compounds were also tested for non-selective cytotoxicity in a viability assay against IMR90 lung fibroblasts.

[6] = tested on: cysteine targets throughout the proteome, MDA-MB-231 cells; test: rdTOP-ABPP profiling of reactive cysteines; conditions: 5 μM
Protocol: (§1) MDA-MB-231 cells were cultured at 37° C. under a 5% CO2 atmosphere in DMEM culture medium supplemented with 10% FBS and 1% PS. Cells were grown to 70% confluence and incubated with DMSO or 5 μM Pin1-3 for 2 hours with serum-free medium. Cells were harvested, lysed by sonication in ice-cold PBS containing 0.1% Triton™ X-100 and centrifuged at 100,000 g for 30 minutes to remove cell debris. Then protein concentrations were determined by BCA protein assay. Proteomes were normalized to 2 mg/ml in 1 ml for each sample. Each of the DMSO and Pin1-3 incubated proteomes was treated with 100 μM iodoacetamide alkyne for 1 hour at room temperature. […] Finally, the samples were prepared, analyzed on LC-MS/MS and quantified according to procedures described in Yang et al. [Anal Chem 2018, 90:9576-9582]. […] LC-MS/MS data was analyzed by ProLuCID™ algorithm (as described by Xu et al. [J Proteomics 2015, 129:16-24]) with static modification of cysteine (+57.0215 Da) and variable oxidation of methionine (+15.9949 Da). […] The ratios were quantified by CImage™ software [Weerapana et al., Nature 2010, 468, 790-795].
(§2) This variant of the isoTOP-ABPP technique enables the site-specific quantification of cysteine binding by label-free covalent inhibitors. […] After enrichment on beads, the peptides were isotopically derivatized by triplex reductive dimethylation, cleaved and analyzed via LC-MS/MS analysis.

[7] = target: cysteine targets throughout the proteome, MDA-MB-231 cells (Homo sapiens, UniProt Q13526); test: rdTOP-ABPP profiling of reactive cysteines; conditions: 5 μM, two biological replicates
cysteine targets throughout the proteome, MDA-MB-231 cells (Homo sapiens, UniProt Q13526), sequence (Q13526 whole entry): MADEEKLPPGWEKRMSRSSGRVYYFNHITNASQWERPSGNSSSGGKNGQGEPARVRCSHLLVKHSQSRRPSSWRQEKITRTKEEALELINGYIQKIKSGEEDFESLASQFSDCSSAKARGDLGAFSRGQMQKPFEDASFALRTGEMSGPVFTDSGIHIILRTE
Protocol: as §1, §2

[8] = target: GST-Pin1 (Homo sapiens, UniProt Q13526); test: Fluorescence polarization (FP) competition assay; format: binding
GST-Pin1, sequence (Q13526 whole entry): as above
Protocol: Binding affinity to Pin1 was determined using a fluorescence polarization assay to assess competition with an N-terminal fluorescein-labeled peptide (Bth-D-phosThr-Pip-Nal), which was obtained from JPT Peptide Technologies and Proteintech Group. The indicated concentrations of candidate compound were pre-incubated for 12 hours at 4° C. with a solution containing 250 nM glutathione S-transferase (GST)-Pin1, 5 nM of fluorescein-labeled peptide probe, 10 μg/ml bovine serum albumin, 0.01% Tween-20 and 1 mM DTT (dithiothreitol) in a buffer of 10 mM HEPES, 10 mM NaCl and 1% glycerol (pH 7.4). Measurements of FP were performed in black 384-well plates (Corning) using an EnVision™ reader. Apparent Ki values (under the tested conditions) obtained from the FP assay results were derived from the Kenakin Ki equation:
Kenakin Ki=(Lb)(EC50)(Kd)/(Lo)(Ro)+Lb(Ro−Lo+Lb−Kd)
Sittampalam G. S. et al., Eli Lilly & Company and the National Center for Advancing Translational Sciences, 2004].
Covalent labeling of Pin1 was confirmed to translate into enzyme inhibition via a fluorescence polarization (FP) competition assay using a FITC-labeled substrate mimetic peptide inhibitor, as well as a chymotrypsin-coupled PPIase assay, using procedures described in Wei et al. [Nat Med 2015, 21:457-466].
The fluorescent polarization assay was performed in a dose-dependent and time-dependent manner, in order to further characterize the kinetic parameters of Pin1-3 binding to Pin1.

T1 sequence (Q13526 whole entry): as above

## CC(C)(C)CN(C(=O)CCl)C1CCS(=O)(=O)C1 (centres unmarked) [Pin1-3, 2-chloro-N-(sulfolan-3-yl)-N-neopentylacetamide]
[1]
  Concentration of full engagement of Pin1: 1 µM
[2]
  half-life: 41 min
[3]
  PDAC cell growth: inhibited tumor growth of PDAC cells in a dose-dependent manner
[4]
  KPC tumor growth: inhibited KPC tumor growth
  Survival (Kaplan-Meier): enhanced survival
[5]
  EC50: > 25 µM
[6]
  Competition ratio R, all other identified cysteines: below 2.5
[7]
  Competition ratio R, Cys113 of Pin1: 15
[8]; FP assay, competition with fluorescein-labeled peptide, 250 nM GST-Pin1, read-out: Ki (apparent)
  Ki: 110 nM
[8]; dose-dependent and time-dependent FP assay
  kinact: 0.0005 s⁻¹
[8]; dose-dependent and time-dependent FP assay, read-out: Kinact/Ki (apparent)
  kinact/KI: 29000 M⁻¹ s⁻¹
